Experimental data: the CheMixHub viscosity set

Experiment: xn = mol fraction of the nth substance listed
Conditions: 101 kPa

OCCCCO + CS(C)=O
viscosity [mPa·s]
Conditions | 293.15 K | 298.15 K | 303.15 K | 308.15 K | 313.15 K | 318.15 K
x1 = 0.0436 | 2.61 | 2.25 | 2.06 | 1.81 | 1.67 | 1.55
x1 = 0.0879 | 3 | 2.59 | 2.35 | 2.06 | 1.89 | 1.74
x1 = 0.1327 | 3.46 | 2.97 | 2.68 | 2.34 | 2.13 | 1.96
x1 = 0.1781 | 4.01 | 3.4 | 3.06 | 2.66 | 2.41 | 2.21
x1 = 0.2242 | 4.66 | 3.92 | 3.51 | 3.05 | 2.73 | 2.53
x1 = 0.2709 | 5.43 | 4.53 | 4.05 | 3.49 | 3.13 | –
x1 = 0.3183 | 6.36 | 5.27 | 4.7 | 4 | 3.55 | –
x1 = 0.3663 | 7.51 | 6.19 | 5.47 | 4.63 | 4.08 | –
x1 = 0.415 | 8.85 | 7.3 | 6.4 | 5.38 | 4.7 | –
x1 = 0.4644 | 10.5 | 8.6 | 7.5 | 6.3 | 5.47 | –
x1 = 0.5145 | 12.7 | 10.3 | 8.9 | 7.4 | 6.4 | –
x1 = 0.5653 | 15.4 | 12.4 | 10.6 | 8.8 | 7.5 | –
x1 = 0.6169 | 18.9 | 15 | 12.8 | 10.5 | 8.9 | –
x1 = 0.6692 | 23.4 | 18.5 | 15.6 | 12.7 | 10.7 | –
x1 = 0.7223 | 29.2 | 22.9 | 19.1 | 15.4 | 12.9 | –
x1 = 0.7762 | 36.7 | 28.4 | 23.5 | 18.9 | 15.6 | –
x1 = 0.8309 | 46.5 | 35.7 | 29.3 | 23.2 | 19 | –
x1 = 0.8864 | 59.2 | 44.8 | 36.4 | 28.6 | 23.3 | –
x1 = 0.9428 | 75.2 | 56.4 | 45.4 | 35.5 | 28.7 | –
